In patent US10738057B2, “Tertiary alcohols as PI3K-γ inhibitors” (Incyte Corporation, priority 2017, dated 2020):
Structures can show the parent of a compound that is named as a salt. Where two headings read alike, the source gives them in different places.

Tests used:
[1] = test system: Phosphorylated Ribosomal Protein S6 (RPS6) in THP-1 cells; assay: THP-1 RPS6 ELISA assay; format: cell-based, Human; settings: Homo sapiens, serum starved, 2 h compound, 10 nM MCP-1 for 15 min, phospho-RPS6 ELISA, read-out: PI3Kγ_THP1_RPS6_ELISA IC50
How it was run: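 Phospho-RPS6 in lysates measured by ELISA at 450 nm, corrected at 540 nm, after MCP-1 challenge (10 nM, 15 min) of THP-1 cells that were starved overnight and exposed to test compound for 2 h at 37° C, 2×10^5 cells/well. Curve fit of percent inhibition gives IC50.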

[2] = molecular target: PI3Kδ (p110δ/p85α) Recombinant Human Protein (Homo sapiens (Human), UniProt O00329); assay: PI3Kδ scintillation proximity assay; format: biochemical; settings: 20 μM PIP2, 2 μM ATP, 3.4 nM PI3Kδ, 120 min, room temperature; read-out: PI3Kδ IC50
How it was run: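 Recombinant human p110δ/p85α was run at room temperature in 20 mM MOPS pH 6.7, 10 mM MgCl2, 5 mM DTT, 0.03% CHAPS, 2% DMSO. Substrates were 20 µM PIP2 and 2 µM ATP with [γ-33P]ATP. Product was captured overnight on WGA SPA beads and counted by scintillation; IC50 fitted from percent of solvent control versus log concentration.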

[3] = molecular target: PI3Kγ (p110γ) Recombinant Human Protein (Homo sapiens (Human), UniProt P48736); assay: PI3K-γ scintillation proximity assay; format: biochemical; settings: 20 μM PIP2, 2 μM ATP, 13 nM PI3Kγ, 120 min, room temperature
How it was run: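 Radiometric SPA in 20 mM MOPS pH 6.7, 10 mM MgCl2, 5 mM DTT, 0.03% CHAPS, 2% DMSO. Stopped with EDTA and WGA SPA beads for scintillation counting. IC50 fitted from % solvent-control activity versus log concentration.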

PI3Kγ (p110γ) Recombinant Human Protein, sequence (P48736 whole entry): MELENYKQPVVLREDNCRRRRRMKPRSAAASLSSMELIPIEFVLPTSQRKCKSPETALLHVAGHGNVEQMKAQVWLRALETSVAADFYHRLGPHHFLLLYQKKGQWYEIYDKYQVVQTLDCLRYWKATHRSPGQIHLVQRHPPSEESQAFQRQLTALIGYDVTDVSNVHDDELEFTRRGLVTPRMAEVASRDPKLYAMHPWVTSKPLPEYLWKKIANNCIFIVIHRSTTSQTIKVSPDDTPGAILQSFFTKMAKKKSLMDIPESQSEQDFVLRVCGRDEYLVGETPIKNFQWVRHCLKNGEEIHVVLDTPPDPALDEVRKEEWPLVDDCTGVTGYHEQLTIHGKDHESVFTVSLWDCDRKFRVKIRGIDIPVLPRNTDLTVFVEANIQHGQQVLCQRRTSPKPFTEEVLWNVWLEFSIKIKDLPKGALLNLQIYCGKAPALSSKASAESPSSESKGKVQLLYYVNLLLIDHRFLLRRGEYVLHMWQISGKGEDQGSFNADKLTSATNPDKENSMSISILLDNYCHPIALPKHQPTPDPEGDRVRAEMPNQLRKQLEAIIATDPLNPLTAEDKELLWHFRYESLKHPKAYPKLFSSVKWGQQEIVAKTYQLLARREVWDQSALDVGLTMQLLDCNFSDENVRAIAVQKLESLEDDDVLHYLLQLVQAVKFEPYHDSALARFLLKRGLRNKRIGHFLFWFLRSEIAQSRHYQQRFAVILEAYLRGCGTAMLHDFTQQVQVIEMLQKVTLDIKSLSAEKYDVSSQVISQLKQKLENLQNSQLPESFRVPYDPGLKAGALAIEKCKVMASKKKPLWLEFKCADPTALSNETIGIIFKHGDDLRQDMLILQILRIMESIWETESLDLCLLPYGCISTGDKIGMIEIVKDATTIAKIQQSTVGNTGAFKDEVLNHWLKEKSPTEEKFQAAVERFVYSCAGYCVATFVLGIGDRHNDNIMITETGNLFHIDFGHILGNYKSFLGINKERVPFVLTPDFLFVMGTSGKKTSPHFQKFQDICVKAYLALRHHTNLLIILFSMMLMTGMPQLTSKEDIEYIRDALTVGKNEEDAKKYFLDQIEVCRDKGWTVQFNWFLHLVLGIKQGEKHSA
PI3Kδ (p110δ/p85α) Recombinant Human Protein, sequence (O00329 whole entry): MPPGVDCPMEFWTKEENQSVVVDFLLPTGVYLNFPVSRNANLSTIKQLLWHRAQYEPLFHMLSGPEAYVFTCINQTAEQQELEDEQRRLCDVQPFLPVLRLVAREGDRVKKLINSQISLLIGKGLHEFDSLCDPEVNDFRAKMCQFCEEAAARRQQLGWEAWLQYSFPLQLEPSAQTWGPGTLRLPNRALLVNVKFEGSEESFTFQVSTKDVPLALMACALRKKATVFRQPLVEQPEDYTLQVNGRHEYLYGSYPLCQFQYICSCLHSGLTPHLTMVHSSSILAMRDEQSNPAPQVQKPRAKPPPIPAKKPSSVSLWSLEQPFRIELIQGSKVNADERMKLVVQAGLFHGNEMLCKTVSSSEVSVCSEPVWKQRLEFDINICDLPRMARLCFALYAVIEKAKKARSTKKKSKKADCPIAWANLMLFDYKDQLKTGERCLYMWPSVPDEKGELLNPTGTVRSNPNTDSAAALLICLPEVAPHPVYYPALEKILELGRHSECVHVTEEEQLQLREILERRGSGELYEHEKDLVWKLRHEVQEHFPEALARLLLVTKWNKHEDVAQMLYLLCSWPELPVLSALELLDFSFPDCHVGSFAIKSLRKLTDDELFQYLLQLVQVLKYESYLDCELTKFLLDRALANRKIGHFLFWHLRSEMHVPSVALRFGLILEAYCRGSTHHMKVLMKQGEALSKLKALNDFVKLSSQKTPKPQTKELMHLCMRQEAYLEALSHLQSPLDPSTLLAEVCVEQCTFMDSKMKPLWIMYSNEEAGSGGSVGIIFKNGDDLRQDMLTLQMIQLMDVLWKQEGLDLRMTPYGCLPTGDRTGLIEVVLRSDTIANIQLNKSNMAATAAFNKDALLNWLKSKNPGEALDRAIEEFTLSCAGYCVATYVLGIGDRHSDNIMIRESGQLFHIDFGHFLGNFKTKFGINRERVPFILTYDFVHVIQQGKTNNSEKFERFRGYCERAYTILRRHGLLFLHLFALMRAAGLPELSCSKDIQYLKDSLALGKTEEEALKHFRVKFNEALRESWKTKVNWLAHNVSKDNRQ
PI3Kδ (p110δ/p85α) Recombinant Human Protein, sequence (P27986 whole entry partner): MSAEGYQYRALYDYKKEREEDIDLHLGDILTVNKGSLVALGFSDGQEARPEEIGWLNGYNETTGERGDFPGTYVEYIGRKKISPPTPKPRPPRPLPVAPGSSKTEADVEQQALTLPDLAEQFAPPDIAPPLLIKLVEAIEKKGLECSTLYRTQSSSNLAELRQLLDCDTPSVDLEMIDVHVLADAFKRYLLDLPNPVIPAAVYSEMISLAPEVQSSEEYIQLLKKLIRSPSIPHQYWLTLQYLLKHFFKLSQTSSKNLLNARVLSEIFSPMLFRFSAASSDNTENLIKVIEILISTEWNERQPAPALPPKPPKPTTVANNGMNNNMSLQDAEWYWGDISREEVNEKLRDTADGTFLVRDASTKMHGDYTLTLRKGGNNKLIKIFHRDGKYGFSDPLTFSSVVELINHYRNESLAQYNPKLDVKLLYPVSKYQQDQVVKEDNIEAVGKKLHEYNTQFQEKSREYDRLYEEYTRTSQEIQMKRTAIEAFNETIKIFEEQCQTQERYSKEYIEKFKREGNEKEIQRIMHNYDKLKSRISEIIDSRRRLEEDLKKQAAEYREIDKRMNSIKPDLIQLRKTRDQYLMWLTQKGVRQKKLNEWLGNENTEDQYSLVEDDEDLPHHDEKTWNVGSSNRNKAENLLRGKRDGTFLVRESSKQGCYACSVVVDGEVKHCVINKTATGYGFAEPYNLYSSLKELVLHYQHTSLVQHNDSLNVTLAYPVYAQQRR

Compound	IC50 ([1]; THP-1, THP-1 cells) [nM]	IC50 [2] [nM]	IC50 [3] [nM]	IC50 ([1]; THP-1 cells) [nM]
Cc1ccc(C(C)(O)C(F)F)cc1-c1cnc2c(N)nc(-c3cncc(S(C)(=O)=O)c3)cn12 (stereo not drawn) [Example 106, 2-(3-(8-Amino-6-(5-(methylsulfonyl)pyridin-3-yl)imidazo[1,2-a]pyrazin-3-yl)-4-methylphenyl)-1,1-difluoropropan-2-ol]	100 to 500	100 to 500	< 100	–
Cc1ccc(C(C)(O)C(F)F)cc1-c1cnc2c(N)nc(-c3ccc(B(O)O)cc3)cn12 (stereo not drawn) [Example 108, (4-(8-amino-3-(5-(1,1-difluoro-2-hydroxypropan-2-yl)-2-methylphenyl)imidazo[1,2-a]pyrazin-6-yl)phenyl)boronic acid trifluoroacetate salt]	< 100	< 100	< 100	–
Cc1nc(N)c2ncc(-c3cc(C(O)(C(F)F)C(F)F)ccc3C)n2n1 [Example 112, 2-(3-(4-Amino-2-methylimidazo[2,1-f][1,2,4]triazin-7-yl)-4-methylphenyl)-1,1,3,3-tetrafluoropropan-2-ol trifluoroacetate salt]	500 to 1000	500 to 2000	< 100	–
CNC(=O)C(O)(c1ccc(C)c(-c2cnc3c(N)nc(C(F)(F)F)cn23)c1)C(F)(F)F (stereo not drawn) [Example 118, 2-(3-(8-Amino-6-(trifluoromethyl)imidazo[1,2-a]pyrazin-3-yl)-4-methylphenyl)-3,3,3-trifluoro-2-hydroxy-N-methylpropanamide]	< 100	< 100	< 100	–
Cc1ccc(C(O)(C(=O)O)C(F)(F)F)cc1-c1cnc2c(N)nc(C(F)(F)F)cn12 (stereo not drawn) [Example 120, 2-(3-(8-amino-6-(trifluoromethyl)imidazo[1,2-a]pyrazin-3-yl)-4-methylphenyl)-3,3,3-trifluoro-2-hydroxypropanoic acid]	> 1000	100 to 500	< 100	–
Cc1ccc(C(O)(C(=O)NC2(C)CNC2)C(F)(F)F)cc1-c1cnc2c(N)nc(C(F)(F)F)cn12 (stereo not drawn) [Example 128, 2-(3-(8-Amino-6-(trifluoromethyl)imidazo[1,2-a]pyrazin-3-yl)-4-methylphenyl)-3,3,3-trifluoro-2-hydroxy-N-(3-methylazetidin-3-yl)propanamide trifluoroacetate salt]	< 100	< 100	< 100	–
Cc1ccc(C(O)(C(=O)NC23CC(C2)C3)C(F)(F)F)cc1-c1cnc2c(N)nc(C(F)(F)F)cn12 (stereo not drawn) [Example 129, 2-(3-(8-Amino-6-(trifluoromethyl)imidazo[1,2-a]pyrazin-3-yl)-4-methylphenyl)-N-(bicyclo[1.1.1]pentan-1-yl)-3,3,3-trifluoro-2-hydroxypropanamide trifluoroacetate salt]	< 100	< 100	< 100	–
Cc1ccc(C(C)(O)C(F)(F)F)cc1-c1cnc2c(N)nc(C#CC3CC3)cn12 (stereo not drawn) [Example 162, 2-(3-(8-Amino-6-(cyclopropylethynyl)imidazo[1,2-a]pyrazin-3-yl)-4-methylphenyl)-1,1,1-trifluoropropan-2-ol trifluoroacetate salt]	100 to 500	100 to 500	< 100	–
Cc1ccc(C(O)(CNC(=O)CF)C(F)(F)F)cc1-c1cnc2c(N)nc(C(F)(F)F)cn12 (stereo not drawn) [Example 214, N-(2-(3-(8-amino-6-(trifluoromethyl)imidazo[1,2-a]pyrazin-3-yl)-4-methylphenyl)-3,3,3-trifluoro-2-hydroxypropyl)-2-fluoroacetamide trifluoroacetate salt]	–	100 to 500	< 100	100 to 500
CNC(=O)C(C)(C)C(O)(c1ccc(C)c(-c2cnc3c(N)nc(C(F)(F)F)cn23)c1)C(F)(F)F (stereo not drawn) [Example 262, 3-(3-(8-Amino-6-(trifluoromethyl)imidazo[1,2-a]pyrazin-3-yl)-4-methylphenyl)-4,4,4-trifluoro-3-hydroxy-N,2,2-trimethylbutanamide]	> 1000	100 to 500	< 100	–
Cc1ccc(C(O)(C(F)(F)F)C(F)(F)F)cc1-c1cnc2c(N)nc(-c3ccnn3C)cn12 [Example 264, 2-(3-(8-Amino-6-(1-methyl-1H-pyrazol-5-yl)imidazo[1,2-a]pyrazin-3-yl)-4-methylphenyl)-1,1,1,3,3,3-hexafluoropropan-2-ol]	< 100	< 100	< 100	–
[2H]C([2H])([2H])c1ccc(C(C)(O)C(F)(F)F)cc1-c1cnc2c(N)nc(-c3ccc(C(C)O)nc3)cn12 (stereo not drawn) [Example 267, 2-(3-(8-Amino-6-(6-(1-hydroxyethyl)pyridin-3-yl)imidazo[1,2-a]pyrazin-3-yl)-4-(methyl-d3)phenyl)-1,1,1-trifluoropropan-2-ol]	< 100	< 100	< 100	–
Cc1ccc(C(C)(O)C(F)(F)Cl)cc1-c1cnc2c(N)nc(C(F)(F)F)cn12 (stereo not drawn) [Example 268, 2-(3-(8-Amino-6-(trifluoromethyl)imidazo[1,2-a]pyrazin-3-yl)-4-methylphenyl)-1-chloro-1,1-difluoropropan-2-ol]	100 to 500	100 to 500	< 100	–
Cc1ccc(C(C)(O)C(F)(F)F)cc1-c1cnc2c(N)nc(C(=O)NC34CC(C#N)(C3)C4)cn12 (stereo not drawn) [Example 278, 8-Amino-N-(3-cyanobicyclo[1.1.1]pentan-1-yl)-3-(2-methyl-5-(1,1,1-trifluoro-2-hydroxypropan-2-yl)phenyl)imidazo[1,2-a]pyrazine-6-carboxamide trifluoroacetate salt]	100 to 500	100 to 500	< 100	–
Cc1ccc(C(C)(O)C(F)(F)F)cc1-c1cnc2c(N)nc(C(=O)NCC3(C#N)CCC3)cn12 (stereo not drawn) [Example 283, 8-Amino-N-((1-cyanocyclobutyl)methyl)-3-(2-methyl-5-(1,1,1-trifluoro-2-hydroxypropan-2-yl)phenyl)imidazo[1,2-a]pyrazine-6-carboxamide trifluoroacetate salt]	> 1000	< 100	< 100	–
Cc1ccc(C(O)(C(N)=O)C(F)(F)F)cc1-c1cnc2c(N)nc(C(=O)NCC(C)(C)O)cn12 (stereo not drawn) [Example 284, 8-Amino-3-(5-(3-amino-1,1,1-trifluoro-2-hydroxy-3-oxopropan-2-yl)-2-methylphenyl)-N-(2-hydroxy-2-methylpropyl)imidazo[1,2-a]pyrazine-6-carboxamide]	< 100	100 to 500	< 100	–
Cc1ccc(C(O)(C(N)=O)C(F)(F)F)cc1-c1cnc2c(N)nc(C(=O)NC3CCOCC3)cn12 (stereo not drawn) [Example 285, 8-Amino-3-(5-(3-amino-1,1,1-trifluoro-2-hydroxy-3-oxopropan-2-yl)-2-methylphenyl)-N-(tetrahydro-2H-pyran-4-yl)imidazo[1,2-a]pyrazine-6-carboxamide]	100 to 500	500 to 2000	< 100	–
Cc1ccc(C(O)(C(N)=O)C(F)(F)F)cc1-c1cnc2c(N)nc(C(=O)NC34CC(F)(C3)C4)cn12 (stereo not drawn) [Example 288, 8-Amino-3-(5-(3-amino-1,1,1-trifluoro-2-hydroxy-3-oxopropan-2-yl)-2-methylphenyl)-N-(3-fluorobicyclo[1.1.1]pentan-1-yl)imidazo[1,2-a]pyrazine-6-carboxamide trifluoroacetate salt]	< 100	100 to 500	< 100	–
[2H]C([2H])([2H])NC(=O)C(O)(c1ccc(C)c(-c2cnc3c(N)nc(C(=O)NC(CC#N)C(F)(F)F)cn23)c1)C(F)(F)F (stereo not drawn) [Example 289, 8-Amino-N-(3-cyano-1,1,1-trifluoropropan-2-yl)-3-(2-methyl-5-(1,1,1-trifluoro-2-hydroxy-3-((methyl-d3)amino)-3-oxopropan-2-yl)phenyl)imidazo[1,2-a]pyrazine-6-carboxamide trifluoroacetate salt]	< 100	100 to 500	< 100	–
